Measured values as given in BindingDB's records for doi:10.1016/j.bmcl.2004.06.092 (Merck Research Laboratories, 2004).

Tests used:
[1] = target: T1, Dimer of Gag-Pol polyprotein [489-587,Q496K,L499I,M525I,N526D,M535I,R546K,L552P,A560V,G562S,I573V,L579M,I582L] (Human immunodeficiency virus 1, UniProt P12497, A560V/G562S/I573V/I582L/L499I/L552P/L579M/M525I/M535I/N526D/Q496K/R546K); test: Protease Inhibition Assay
T1 construct: 489-587
Procedure: (§1) Assay of HIV protease inhibition was performed by peptide cleavage using the substrate Val-Ser-Gln-Asn-beta-naphthylalanine*Pro-Ile-Val. Products of the cleavage reaction were quantified by HPLC detection, and data were fit to nonlinear least squares equations for determination of steady-state Michaelis-Menten kinetics.

[2] = target: T2, Dimer of Gag-Pol polyprotein [489-587,Q496K] (Human immunodeficiency virus 1, UniProt P12497, Q496K); test: Protease Inhibition Assay; settings: pH 5.5; 30 °C
T2 construct: 489-587
Procedure: as §1

SMILES | IC50 [1] | IC50 [2]
COc1cncc(-c2cnc(C(C)(C)N3CCN(C[C@@H](O)C[C@@H](Cc4nnco4)C(=O)N[C@H]4c5ccccc5OC[C@H]4O)[C@H](C(=O)NCC(F)(F)F)C3)o2)c1 [(2S)-1-[(2S,4S)-2-hydroxy-4-{[(3S,4S)-3-hydroxy-3,4-dihydro-2H-1-benzopyran-4-yl]carbamoyl}-4-(1,3,4-oxadiazol-2-ylmethyl)butyl]-4-{2-[5-(5-methoxypyridin-3-yl)-1,3-oxazol-2-yl]propan-2-yl}-N-(2,2,2-trifluoroethyl)piperazine-2-carboxamide] | 7.4 nM | 0.24 nM
COc1cncc(-c2cnc(C(C)(C)N3CCN(C[C@@H](O)C[C@@H](Cc4nnc(C)o4)C(=O)N[C@H]4c5ccccc5OC[C@H]4O)[C@H](C(=O)NCC(F)(F)F)C3)o2)c1 [(2S)-1-[(2S,4S)-2-hydroxy-4-{[(3S,4S)-3-hydroxy-3,4-dihydro-2H-1-benzopyran-4-yl]carbamoyl}-4-[(5-methyl-1,3,4-oxadiazol-2-yl)methyl]butyl]-4-{2-[5-(5-methoxypyridin-3-yl)-1,3-oxazol-2-yl]propan-2-yl}-N-(2,2,2-trifluoroethyl)piperazine-2-carboxamide] | 15 nM | 0.4 nM
COc1cncc(-c2cnc(C(C)(C)N3CCN(C[C@@H](O)C[C@@H](Cc4nnc(-c5ccccc5)o4)C(=O)N[C@H]4c5ccccc5OC[C@H]4O)[C@H](C(=O)NCC(F)(F)F)C3)o2)c1 [(2S)-1-[(2S,4S)-2-hydroxy-4-{[(3S,4S)-3-hydroxy-3,4-dihydro-2H-1-benzopyran-4-yl]carbamoyl}-4-[(5-phenyl-1,3,4-oxadiazol-2-yl)methyl]butyl]-4-{2-[5-(5-methoxypyridin-3-yl)-1,3-oxazol-2-yl]propan-2-yl}-N-(2,2,2-trifluoroethyl)piperazine-2-carboxamide] | – | 0.48 nM
CCCc1nnc(C[C@H](C[C@H](O)CN2CCN(C(C)(C)c3ncc(-c4cncc(OC)c4)o3)C[C@H]2C(=O)NCC(F)(F)F)C(=O)N[C@H]2c3ccccc3OC[C@H]2O)o1 [(2S)-1-[(2S,4S)-2-hydroxy-4-{[(3S,4S)-3-hydroxy-3,4-dihydro-2H-1-benzopyran-4-yl]carbamoyl}-4-[(5-propyl-1,3,4-oxadiazol-2-yl)methyl]butyl]-4-{2-[5-(5-methoxypyridin-3-yl)-1,3-oxazol-2-yl]propan-2-yl}-N-(2,2,2-trifluoroethyl)piperazine-2-carboxamide] | – | 0.32 nM
CC(C)(c1ncc(-c2ccc(Cl)cc2)o1)N1CCN(C[C@@H](O)C[C@@H](Cc2nnco2)C(=O)N[C@H]2c3ccccc3OC[C@H]2O)[C@H](C(=O)NCC(F)(F)F)C1 [(2S)-4-{2-[5-(4-chlorophenyl)-1,3-oxazol-2-yl]propan-2-yl}-1-[(2S,4S)-2-hydroxy-4-{[(3S,4S)-3-hydroxy-3,4-dihydro-2H-1-benzopyran-4-yl]carbamoyl}-4-(1,3,4-oxadiazol-2-ylmethyl)butyl]-N-(2,2,2-trifluoroethyl)piperazine-2-carboxamide] | 0.043 nM | < 0.015 nM
Cc1nnc(C[C@H](C[C@H](O)CN2CCN(C(C)(C)c3ncc(-c4ccc(Cl)cc4)o3)C[C@H]2C(=O)NCC(F)(F)F)C(=O)N[C@H]2c3ccccc3OC[C@H]2O)o1 [(2S)-4-{2-[5-(4-chlorophenyl)-1,3-oxazol-2-yl]propan-2-yl}-1-[(2S,4S)-2-hydroxy-4-{[(3S,4S)-3-hydroxy-3,4-dihydro-2H-1-benzopyran-4-yl]carbamoyl}-4-[(5-methyl-1,3,4-oxadiazol-2-yl)methyl]butyl]-N-(2,2,2-trifluoroethyl)piperazine-2-carboxamide] | 0.06 nM | 0.016 nM
CC(C)(c1ncc(-c2ccc(Cl)cc2)o1)N1CCN(C[C@@H](O)C[C@@H](Cc2nnc(-c3ccccc3)o2)C(=O)N[C@H]2c3ccccc3OC[C@H]2O)[C@H](C(=O)NCC(F)(F)F)C1 [(2S)-4-{2-[5-(4-chlorophenyl)-1,3-oxazol-2-yl]propan-2-yl}-1-[(2S,4S)-2-hydroxy-4-{[(3S,4S)-3-hydroxy-3,4-dihydro-2H-1-benzopyran-4-yl]carbamoyl}-4-[(5-phenyl-1,3,4-oxadiazol-2-yl)methyl]butyl]-N-(2,2,2-trifluoroethyl)piperazine-2-carboxamide] | 0.18 nM | < 0.015 nM
CCCc1nnc(C[C@H](C[C@H](O)CN2CCN(C(C)(C)c3ncc(-c4ccc(Cl)cc4)o3)C[C@H]2C(=O)NCC(F)(F)F)C(=O)N[C@H]2c3ccccc3OC[C@H]2O)o1 [(2S)-4-{2-[5-(4-chlorophenyl)-1,3-oxazol-2-yl]propan-2-yl}-1-[(2S,4S)-2-hydroxy-4-{[(3S,4S)-3-hydroxy-3,4-dihydro-2H-1-benzopyran-4-yl]carbamoyl}-4-[(5-propyl-1,3,4-oxadiazol-2-yl)methyl]butyl]-N-(2,2,2-trifluoroethyl)piperazine-2-carboxamide] | 0.12 nM | < 0.015 nM
CC(C)(c1ncc(-c2ccc(F)cc2)o1)N1CCN(C[C@@H](O)C[C@@H](Cc2nnco2)C(=O)N[C@H]2c3ccccc3OC[C@H]2O)[C@H](C(=O)NCC(F)(F)F)C1 [(2S)-4-{2-[5-(4-fluorophenyl)-1,3-oxazol-2-yl]propan-2-yl}-1-[(2S,4S)-2-hydroxy-4-{[(3S,4S)-3-hydroxy-3,4-dihydro-2H-1-benzopyran-4-yl]carbamoyl}-4-(1,3,4-oxadiazol-2-ylmethyl)butyl]-N-(2,2,2-trifluoroethyl)piperazine-2-carboxamide] | 0.065 nM | 0.024 nM
Cc1nnc(C[C@H](C[C@H](O)CN2CCN(C(C)(C)c3ncc(-c4ccc(F)cc4)o3)C[C@H]2C(=O)NCC(F)(F)F)C(=O)N[C@H]2c3ccccc3OC[C@H]2O)o1 [(2S)-4-{2-[5-(4-fluorophenyl)-1,3-oxazol-2-yl]propan-2-yl}-1-[(2S,4S)-2-hydroxy-4-{[(3S,4S)-3-hydroxy-3,4-dihydro-2H-1-benzopyran-4-yl]carbamoyl}-4-[(5-methyl-1,3,4-oxadiazol-2-yl)methyl]butyl]-N-(2,2,2-trifluoroethyl)piperazine-2-carboxamide] | 0.19 nM | 0.027 nM
CC(C)(c1ncc(-c2ccc(F)cc2)o1)N1CCN(C[C@@H](O)C[C@@H](Cc2nnc(-c3ccccc3)o2)C(=O)N[C@H]2c3ccccc3OC[C@H]2O)[C@H](C(=O)NCC(F)(F)F)C1 [(2S)-4-{2-[5-(4-fluorophenyl)-1,3-oxazol-2-yl]propan-2-yl}-1-[(2S,4S)-2-hydroxy-4-{[(3S,4S)-3-hydroxy-3,4-dihydro-2H-1-benzopyran-4-yl]carbamoyl}-4-[(5-phenyl-1,3,4-oxadiazol-2-yl)methyl]butyl]-N-(2,2,2-trifluoroethyl)piperazine-2-carboxamide] | – | 0.02 nM
CCCc1nnc(C[C@H](C[C@H](O)CN2CCN(C(C)(C)c3ncc(-c4ccc(F)cc4)o3)C[C@H]2C(=O)NCC(F)(F)F)C(=O)N[C@H]2c3ccccc3OC[C@H]2O)o1 [(2S)-4-{2-[5-(4-fluorophenyl)-1,3-oxazol-2-yl]propan-2-yl}-1-[(2S,4S)-2-hydroxy-4-{[(3S,4S)-3-hydroxy-3,4-dihydro-2H-1-benzopyran-4-yl]carbamoyl}-4-[(5-propyl-1,3,4-oxadiazol-2-yl)methyl]butyl]-N-(2,2,2-trifluoroethyl)piperazine-2-carboxamide] | 0.19 nM | 0.016 nM
O=C(N[C@H]1c2ccccc2OC[C@H]1O)[C@H](Cc1nnco1)C[C@H](O)CN1CCN(Cc2ccc(-c3ccc(Cl)cc3)o2)C[C@H]1C(=O)NCC(F)(F)F [(2S)-4-{[5-(4-chlorophenyl)furan-2-yl]methyl}-1-[(2S,4S)-2-hydroxy-4-{[(3S,4S)-3-hydroxy-3,4-dihydro-2H-1-benzopyran-4-yl]carbamoyl}-4-(1,3,4-oxadiazol-2-ylmethyl)butyl]-N-(2,2,2-trifluoroethyl)piperazine-2-carboxamide] | 0.099 nM | 0.015 nM
Cc1nnc(C[C@H](C[C@H](O)CN2CCN(Cc3ccc(-c4ccc(Cl)cc4)o3)C[C@H]2C(=O)NCC(F)(F)F)C(=O)N[C@H]2c3ccccc3OC[C@H]2O)o1 [(2S)-4-{[5-(4-chlorophenyl)furan-2-yl]methyl}-1-[(2S,4S)-2-hydroxy-4-{[(3S,4S)-3-hydroxy-3,4-dihydro-2H-1-benzopyran-4-yl]carbamoyl}-4-[(5-methyl-1,3,4-oxadiazol-2-yl)methyl]butyl]-N-(2,2,2-trifluoroethyl)piperazine-2-carboxamide] | – | < 0.015 nM
O=C(N[C@H]1c2ccccc2OC[C@H]1O)[C@H](Cc1nnc(-c2ccccc2)o1)C[C@H](O)CN1CCN(Cc2ccc(-c3ccc(Cl)cc3)o2)C[C@H]1C(=O)NCC(F)(F)F [(2S)-4-{[5-(4-chlorophenyl)furan-2-yl]methyl}-1-[(2S,4S)-2-hydroxy-4-{[(3S,4S)-3-hydroxy-3,4-dihydro-2H-1-benzopyran-4-yl]carbamoyl}-4-[(5-phenyl-1,3,4-oxadiazol-2-yl)methyl]butyl]-N-(2,2,2-trifluoroethyl)piperazine-2-carboxamide] | – | 0.019 nM
CCCc1nnc(C[C@H](C[C@H](O)CN2CCN(Cc3ccc(-c4ccc(Cl)cc4)o3)C[C@H]2C(=O)NCC(F)(F)F)C(=O)N[C@H]2c3ccccc3OC[C@H]2O)o1 [(2S)-4-{[5-(4-chlorophenyl)furan-2-yl]methyl}-1-[(2S,4S)-2-hydroxy-4-{[(3S,4S)-3-hydroxy-3,4-dihydro-2H-1-benzopyran-4-yl]carbamoyl}-4-[(5-propyl-1,3,4-oxadiazol-2-yl)methyl]butyl]-N-(2,2,2-trifluoroethyl)piperazine-2-carboxamide] | – | < 0.015 nM
